This is an account of results in patent US10548993B2, “Metal-encapsulated carbonaceous dots” (UNIVERSITY OF GEORGIA RESEARCH FOUNDATION, INC., priority 2014, dated 2020).

SMILES strings stand for the structures.

In data set [1] the test system is U87MG cells. Nature of the data set: Cytotoxicity study, MTT assay with 2.5 mM Ca(II). The data set is classed as cell-based, human. As to conditions: 24 h. On the procedure:
Gd@C-dots were also subjected to a cytotoxicity study with U87MG cells using standard MTT assays. The cells were first seeded in 96-well plates (1×10^4 cells per well). After 24 h, Gd@C-dots at different concentrations were added. Incubation was carried out for 24 h with or without 2.5 mM CaCl2. To assess the particles' stability against transmetallation, which is the major cause of toxicity for conventional Gd contrast agents (Corot et al., J. Magn. Reson. Imaging 1998, 8(3):695-702), 2.5 mM Ca(II) was added into the incubation medium.
Background: Formazan colour is commonly taken as a measure of viable cells.

For data set [2] the following is noted: comparison value for Gd-DTPA, literature references; cited from earlier work.

Regarding `CNC[C@H](O)[C@@H](O)[C@H](O)[C@H](O)CO.CNC[C@H](O)[C@@H](O)[C@H](O)[C@H](O)CO.O=C([O-])CN(CCN(CC(=O)[O-])CC(=O)O)CCN(CC(=O)[O-])CC(=O)O.[Gd+3]` [Gd-DTPA, gadopentetic acid], the “IC50 (cell death)” value in data set [1] turned out to be 33.1 µg/mL. In addition, the r1 relaxivity in data set [2] was 3.10 mM⁻¹ s⁻¹.
